This is an account of results in US20250091994A1, “RAS/RAF BINDING INHIBITOR COMPOUND” (NATIONAL UNIVERSITY CORPORATION KOBE UNIVERSITY, priority 2021, published 2025).

Like-named read-outs stand apart in the source and are kept apart here.

Experiment [1] concerns the target GTPγS-bound human HRasG12V / human c-Raf-1 Ras binding domain (RBD) (Homo sapiens (Human), UniProt P01112, G12V). In words: Ras-Raf binding inhibition ELISA. Here is the method: The in vitro Ras-Raf binding inhibitory activity of the compound of the present invention was evaluated by an ELISA method (Enzyme-Linked ImmunoSorbent Assay) described below.
Ras and Raf used upon the evaluation were purified and activated by the following method.
Using a pGEX6P-1 vector (GE Healthcare), human HRasG12V (full length, 1-189 amino acid residues) and human c-Raf-1 Ras binding domain (RBD) (50-131 amino acid residues) were each allowed to express as a fusion body with glutathione S-transferase (GST) in E. coli.
GST-HRasG12V-expressing cells were subjected to ultrasonication in a buffer {50 mM Tris-HCl pH 7.4, 150 mM NaCl, 5 mM MgCl2, 1 mM ethylenediaminetetraacetic acid (EDTA), 1 mM dithiothreitol (DTT), 10% glycerol, and 1% Triton-X100}, and were then centrifuged at 100,000×g for 30 minutes, so as to collect the supernatant as a Ras protein fraction. HRasG12V in the supernatant was immobilized on a glutathione-agarose resin, and GST was then cleaved with PreScission Protease (GE Healthcare) for purification. The obtained HRasG12V was mixed with guanosine 5′-O-[gamma-thio]triphosphate trisodium salt (GTPTS) of 1000 times higher concentration at 30° C. for 1 hour, and thereafter, 20 mM MgCl2 (final concentration) was added to stop the reaction and collect the GTPgS-loaded HRasG12V as a product.
On the other hand, GST-c-Raf-1 RBD-expressing cells were subjected to ultrasonication in the same buffer as described above, and were then centrifuged at 100,000×g for 30 minutes, so as to collected the supernatant as a GST-c-Raf-1 RBD protein fraction.
The in vitro Ras-Raf binding inhibitory activity of the compound of the present invention was evaluated by an ELISA method described below.
GST-c-Raf-1 RBD diluted with a Ras-Raf binding buffer (50 mM Tris-HCl pH7.4, 150 mM NaCl, 5 mM MgCl2, 1 mM EDTA, and 1% Triton-X100) was added to each well of a glutathione-coated 96-well plate (Thermo Fisher Scientific.), and was incubated at 30° C. for 1 hour, to immobilize Raf on the well. The unbound free Raf was eliminated by washing the well with the Ras-Raf binding buffer three times. Subsequently, GTPTS-bound HRasG12V diluted with the Ras-Raf binding buffer and each compound solution (final DMSO concentration: 10%) were applied to each well, and the resulting mixture was then incubated at 30° C. for 1 hour, so that Ras and Raf were allowed to bind to each other. Thereafter, the plate was washed with the Ras-Raf binding buffer twice, and was then subjected to a blocking treatment at room temperature for 20 minutes, using TBS-Tween {10 mM Tris-HCl pH 7.4, 150 mM NaCl, and 0.05% (w/v) Tween-20}-5% (w/v) bovine serum albumin (BSA). After that, an anti-HRas antibody (C-20, Santa Cruz) or an anti-HRas antibody (259, Santa Cruz), which had been 1000 times diluted with TBS-Tween-5% BSA, was added to the reaction mixture, and incubated at room temperature for 1 hours. After the treatment with the primary antibody, the plate was washed with TBS-Tween-5% BSA three times, and a horseradish peroxidase-labeled secondary antibody against rabbit immunoglobulin G (GE Healthcare) of 1000 times diluted with TBS-Tween-5% BSA, was added to the plate, followed by incubation at room temperature for 1 hour. After the treatment with the secondary antibody, the plate was washed with TBS-Tween-5% BSA three times, and a substrate solution (TMB) was then added to the plate, followed by incubation at room temperature for 15 minutes for coloration. Finally, 2 M H2SO4 was added to stop color development (coloration reaction kit: Nacalai Tesque). The absorbance at 450 nm (OD450) was measured, so that the color intensity was quantified. Inhibition by the test compound was determined according to the following equation: […]
IC50 (*) in which the anti-HRas antibody (259, Santa Cruz) was used
For orientation: ELISA stands for enzyme-linked immunosorbent assay.

Experiment [2] relates to promyelocytic leukemia cells HL60 (N-RasQ61L). In words: Cell growth inhibition, suspension cells HL60. The class given is cell-based. Conditions: Homo sapiens, HL-60, 72 hours; for inhibition at 10 µM: read-out: HL-60 (NRasQ61L) % inhibition at 10 μM (***). Here is the method:
The cell growth inhibitory activity of the compound of the present invention on human culture cells having active-type mutation in Ras was evaluated by the below-mentioned method using suspension cancer cells {acute lymphoblastic leukemia cells CCRF-CEM (K-RasG12D), promyelocytic leukemia cells HL60 (N-RasQ61L), acute lymphoblastic leukemia cells MOLT4 (N-RasG12C), and small cell lung cancer cells SHP77 (K-RasG12V)} and adherent cancer cells {large bowel cancer cells SW480 (K-RasG12V) and large bowel cancer cell SW620 (K-RasG12V)}.
(Case of suspension cells) The cells suspended in a medium containing 0.5% (v/v) fetal bovine serum (FBS) and each compound solution (final DMSO concentration: 1%) were seeded on a 96-well plate (2 to 4×10^4 cells/well), and the resulting mixture was then cultured at 37° C. in the presence of 5% CO2 for 72 hours.
Thereafter, the number of viable cells was measured using Cell Counting Reagent (Nacalai Tesque) in accordance with the manufacturer's instructions. Inhibition by the test compound was determined according to the following equation: […]

[3] abbreviates: anti-HRas antibody 259 (*), read-out: ELISA IC50 (μM): 1st Ab_259 (*).
Where [4] appears, read: anti-HRas antibody C-20, read-out: ELISA IC50 (μM): 1st Ab_C-20.

GTPγS-bound human HRasG12V / human c-Raf-1 Ras binding domain (RBD), sequence (P01112 whole entry G12V, the tested form may be a part): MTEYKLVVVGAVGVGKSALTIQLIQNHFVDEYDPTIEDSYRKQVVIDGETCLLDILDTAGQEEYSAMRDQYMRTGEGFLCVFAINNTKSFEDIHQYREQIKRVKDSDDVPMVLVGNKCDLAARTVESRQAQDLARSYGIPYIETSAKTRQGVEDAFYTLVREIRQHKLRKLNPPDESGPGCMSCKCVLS

The term IC50 denotes the concentration needed to halve the response being measured. On to `CC(=O)N1/C(=C\c2ccc3cc(CNC4C[C@@H](C)O[C@@H](C)C4)ccc3n2)C(=O)c2ccccc21` (mixture of isomers) [Example 136, (Z)-1-acetyl-2-((6-((((2SR,6RS)-2,6-dimethyltetra-hydro-2H-pyran-4-yl)amino)meth-yl)quinolin-2-yl)-methylene)indolin-3-one], for which the IC50 in experiment [1] (setting [3]) was found to be 1.7 µM.

Turning to `CC(=O)N1/C(=C\c2ccc3cc(CNC4CC(C)O[C@H](C)C4)ccc3n2)C(=O)c2ccccc21` (mixture of isomers) [Example 137, (Z)-1-acetyl-2-((6-((((2SR,6SR)-2,6-dimethyltetra-hydro-2H-pyran-4-yl)amino)meth-yl)quinolin-2-yl)-methylene)indolin-3-one], in experiment [1] (setting [3]), the IC50 was 1.3 µM.

The inhibition is the share of the control response that was lost under treatment. In experiment [1], `CC(=O)N1/C(=C\c2cc(-c3nc[nH]n3)c3cc(C(=O)N4CCOCC4)ccc3n2)C(=O)c2ccccc21` (racemic) [Example 212, 1-acetyl-2-((6-(morpholine-4-carbonyl)-4-(1H-1,2,4-triazol-3-yl)-quinolin-2-yl)-methylene)indolin-3-one] gave an inhibition at 1 µM of 59.9%. Further, the IC50 in experiment [1] (setting [4]) was found to be 0.8 µM.

In experiment [1], `COc1cc(/C=C2/C(=O)c3ccccc3N2C(C)=O)ccc1O` [Example 3, 1-acetyl-2-(4-hydroxy-3-meth-oxybenzylidene)-indolin-3-one] came in with an inhibition at 100 µM of 57%.

For the molecule `CC(=O)N1/C(=C\c2ccc(OCC(N)=O)cc2)C(=O)c2ccccc21` [Example 5, 2-(4-((1-acetyl-3-oxoindolin-2-ylidene)methyl)-phenoxy)acetamide], 100 µM produced 71% inhibition in experiment [1].

Consider `COc1cc(/C=C2/C(=O)c3ccccc3N2C(C)=O)ccc1OCCN1CCOCC1` [Example 7, (Z)-1-acetyl-2-(3-methoxy-4-(2-morpholinoethoxy)-benzylidene)indolin-3-one], for which the inhibition at 100 µM in experiment [1] turned out to be 83%.

In turn, `COc1cc(/C=C2/C(=O)c3ccccc3N2C(C)=O)ccc1OCCOc1ccccc1` [Example 12, 1-acetyl-2-(3-methoxy-4-(2-phenoxyethoxy)-benzylidene)-indolin-3-one] returned an inhibition at 100 µM in experiment [1] of 49%.

In experiment [1], `CC(=O)N1/C(=C\c2ccc(OCC(N)=O)c(OC(C)C)c2)C(=O)c2ccccc21` [Example 30, 2-(4-((1-acetyl-3-oxoindolin-2-ylidene)methyl)-2-isopropoxy-phenoxy)acet-amide] displayed an inhibition at 100 µM of 63%.

Consider `CC(=O)N1/C(=C\c2ccc(OCC(=O)N3CCOCC3)c(F)n2)C(=O)c2ccccc21` [Example 32, (Z)-1-acetyl-2-((6-fluoro-5-(2-morpholino-2-oxoethoxy)-pyridin-2-yl)-methylene)-indolin-3-one], for which the IC50 in experiment [1] (setting [4]) came out at 14 µM.

For the molecule `CC(=O)N1/C(=C\c2ccc(C(=O)N3CCOCC3)cn2)C(=O)c2ccccc21` [Example 70, (Z)-1-acetyl-2-((5-(morpholine-4-carbonyl)pyridin-2-yl)methylene)-indolin-3-one], in experiment [1] (setting [4]), the IC50 stood at 14 µM. Moreover, the inhibition at 1 µM in experiment [2] (1 μM, read-out: HL-60 (NRasQ61L) % inhibition at 1 μM) was 33%.

As to `CC(=O)N1/C(=C\c2ccc3oc(C(=O)N4CCOCC4)cc3n2)C(=O)c2ccccc21` [Example 72, (Z)-1-acetyl-2-((2-(morpholine-4-carbonyl)furo [3,2-b]pyridin-5-yl)methylene)-indolin-3-one], the IC50 in experiment [1] (setting [3]) worked out at 3.6 µM.

Regarding `CC(=O)N1/C(=C\c2ccc3cc(CN4CCN(C5COC5)CC4)ccc3n2)C(=O)c2ccccc21` [Example 74, (Z)-1-acetyl-2-((6-((4-(oxetan-3-yl)piperazin-1-yl)methyl)quinolin-2-yl)methylene)-indolin-3-one], in experiment [1] (setting [3]), the IC50 was 0.71 µM. In addition, the inhibition at 10 µM in experiment [2] came to 99%.

With `CC(=O)N1/C(=C\c2ccc3cc(/C=C/C(=O)N4CCN(C5COC5)CC4)ccc3n2)C(=O)c2ccccc21` [Example 78], the IC50 in experiment [1] (setting [3]) is 0.93 µM. In addition, in experiment [2], the inhibition at 10 µM amounted to 92%.

On to `CC(=O)N1/C(=C/c2nc3ccc(C(=O)N4CC(C)OC(C)C4)cc3s2)C(=O)c2ccccc21` (stereo not drawn) [Example 101, (E)-1-acetyl-2-((6-(2,6-dimethyl-morpholine-4-carbonyl)benzo [d]thiazol-2-yl)-methylene)indolin-3-one], for which, in experiment [2], the inhibition at 10 µM is 87%.

`CC(=O)N1/C(=C\c2nc3ccc(CNC4CCOCC4)cc3s2)C(=O)c2ccccc21` [Example 134]: the IC50 in experiment [1] (setting [3]) is 1.1 µM.

As for `CC(=O)N1/C(=C/c2nc3ccc(CNC4CCOCC4)cc3s2)C(=O)c2ccccc21` [Example 135, (E)-1-acetyl-2-((6-(((tetrahydro-2H-pyran-4-yl)-amino)methyl)-benzo[d]thiazol-2-yl)methylene)-indolin-3-one], in experiment [2], the inhibition at 10 µM came out at 98%.

On to `CC(=O)N1/C(=C\c2cc(-c3cccc4cccnc34)c3cc(C(=O)O)ccc3n2)C(=O)c2ccccc21` [Example 155, (Z)-2-((1-acetyl-3-oxoindolin-2-ylidene)methyl)-[4,8′-biquinoline]-6-carboxylic acid], for which testing at 1 µM in experiment [1] gave an inhibition of 59.3%. For the same molecule, the IC50 in experiment [1] (setting [4]) was 0.7 µM.

Consider `CC(=O)N1/C(=C\c2cc(-c3ccc(C(=O)O)cc3)c3cc(C(=O)N4CCOCC4)ccc3n2)C(=O)c2ccccc21` [Example 174, (Z)-4-(2-((1-acetyl-3-oxoindolin-2-ylidene)methyl)-6-(morpholine-4-carbonyl)quinolin-4-yl)benzoic acid], for which the inhibition at 1 µM in experiment [1] came out at 70.1%. For the same molecule, the IC50 in experiment [1] (setting [4]) amounted to 0.5 µM.

Molecule `CC(=O)N1/C(=C\c2cc(-c3cccc(C(=O)O)c3)c3cc(C(=O)N4CCOCC4)ccc3n2)C(=O)c2ccccc21` [Example 175, (Z)-3-(2-((1-acetyl-3-oxoindolin-2-ylidene)methyl)-6-(morpholine-4-carbonyl)quinolin-4-yl)benzoic acid] returned an inhibition at 1 µM in experiment [1] of 67.2%. Besides, in experiment [1] (setting [4]), the IC50 came to 0.5 µM.

Take `CC(=O)N1/C(=C\c2cc(-c3ccccc3C(=O)O)c3cc(C(=O)N4CCOCC4)ccc3n2)C(=O)c2ccccc21` [Example 176, (Z)-2-(2-((1-acetyl-3-oxoindolin-2-ylidene)methyl)-6-(morpholine-4-carbonyl)quinolin-4-yl)benzoic acid]: in experiment [1], the inhibition at 1 µM is 51.1%. Also, the IC50 in experiment [1] (setting [4]) amounted to 1 µM.

Molecule `CC(=O)N1/C(=C\c2cc(-c3cccnn3)c3cc(C(=O)N4CCOCC4)ccc3n2)C(=O)c2ccccc21` [Example 191, (Z)-1-acetyl-2-((6-(morpholine-4-carbonyl)-4-(pyridazin-3-yl)-quinolin-2-yl)-methylene)indolin-3-one] came in with an inhibition at 1 µM in experiment [1] of 49.2%. Further, the IC50 in experiment [1] (setting [4]) worked out at 1.1 µM.
